± gives the expanded uncertainty stated by the source.
Conditions: Crystal; DTA

| SMILES | Normal melting temperature [°C] |
| --- | --- |
| CC/C=C\C/C=C\C/C=C\CCCCCCCC(=O)OCC(COC(=O)CCCCCCC/C=C\C/C=C\C/C=C\CC)OC(=O)CCCCCCC/C=C\C/C=C\C/C=C\CC [trilinolenin] | -22.0 ± 0.53 |
| CCCCCCCC/C=C\CCCCCCCC(=O)OCC(COC(=O)CCCCCCC/C=C\CCCCCCCC)OC(=O)CCCCCCC/C=C\CCCCCCCC [1,2,3-tri(cis-9-octadecenoyl)glycerol] | 5.27 ± 0.53 |
| CCCCCCCCCCCCCCCCCC(=O)O [octadecanoic acid] | 70.23 ± 0.53 |
| CCCCCCCCCCCCCC(=O)O [tetradecanoic acid] | 55.41 ± 0.53 |

The next lines start with the values.

| Normal melting temperature [°C] | SMILES |
| --- | --- |
| 63.32 ± 0.53 | CCCCCCCCCCCCCCCC(=O)O [hexadecanoic acid] |
| 9.60 ± 0.53 | CCCCCCCC(=O)OCC(COC(=O)CCCCCCC)OC(=O)CCCCCCC [1,2,3-propanetriol trioctanoate] |
